Measured values from the supplement of paper PMC12463676, “Small-molecule dissolution of stress granules by redox modulation benefits ALS models” (Nature Chemical Biology, 2025).

Legend:
potassium arsenate = compound: O=[As]([O-])(O)O.[K+] [potassium arsenate]; experiment: thermal stability z-score vs DMSO; higher = more thermally stabilized by treatment; settings: HeLa; arsenate concentration 1 mM
Description: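 Cellular thermal proteome profiling in HeLa cells treated with 1 mM arsenate for 1 h (DMSO pretreatment), heated to ten temperatures (37-66.3 °C). Soluble protein was quantified by TMT mass spectrometry relative to DMSO controls; the thermal stability score was transformed to a z-score; mean of n = 3 experiments.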

lipoamide = compound: NC(=O)CCCCC1CCSS1 [lipoamide]; experiment: as above; settings: HeLa, lipoamide concentration 100 µM
Description: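 Cellular thermal proteome profiling in HeLa cells. Cells were treated with 100 µM lipoamide for 1 h, with or without 1 mM arsenate for a further 1 h, then heated to ten temperatures (37-66.3 °C), and soluble protein was quantified by TMT mass spectrometry relative to 0.1% DMSO controls. The thermal stability score (sum of log2 fold changes minus the abundance score) was transformed to a z-score; mean of n = 3 experiments.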

[1] = arsenate co-treatment: 1 mM arsenate 1 h
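Note: each temperature applied for 3 min, abundance score taken as mean log2 fold change at the two lowest temperatures, z-score obtained by mean subtraction and division by SD.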

Chain of UniProt O95716 (O95716 whole entry): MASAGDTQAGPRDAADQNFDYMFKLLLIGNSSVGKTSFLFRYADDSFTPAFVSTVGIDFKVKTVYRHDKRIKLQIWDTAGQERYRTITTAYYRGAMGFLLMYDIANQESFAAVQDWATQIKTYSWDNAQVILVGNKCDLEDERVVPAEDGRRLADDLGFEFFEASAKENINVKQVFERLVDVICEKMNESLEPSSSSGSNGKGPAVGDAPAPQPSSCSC
Chain of UniProt Q96PU8 (Q96PU8 whole entry): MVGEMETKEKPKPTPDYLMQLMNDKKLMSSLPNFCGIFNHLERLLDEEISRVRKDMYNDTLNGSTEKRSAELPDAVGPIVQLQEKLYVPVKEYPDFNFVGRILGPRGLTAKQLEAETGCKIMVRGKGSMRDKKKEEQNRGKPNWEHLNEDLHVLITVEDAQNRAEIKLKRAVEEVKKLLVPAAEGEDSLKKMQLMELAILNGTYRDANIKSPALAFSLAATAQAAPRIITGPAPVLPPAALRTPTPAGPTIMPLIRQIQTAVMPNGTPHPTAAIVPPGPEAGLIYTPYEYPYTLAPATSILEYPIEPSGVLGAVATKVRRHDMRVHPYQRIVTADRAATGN
Chain of UniProt Q8WU10 (Q8WU10 whole entry): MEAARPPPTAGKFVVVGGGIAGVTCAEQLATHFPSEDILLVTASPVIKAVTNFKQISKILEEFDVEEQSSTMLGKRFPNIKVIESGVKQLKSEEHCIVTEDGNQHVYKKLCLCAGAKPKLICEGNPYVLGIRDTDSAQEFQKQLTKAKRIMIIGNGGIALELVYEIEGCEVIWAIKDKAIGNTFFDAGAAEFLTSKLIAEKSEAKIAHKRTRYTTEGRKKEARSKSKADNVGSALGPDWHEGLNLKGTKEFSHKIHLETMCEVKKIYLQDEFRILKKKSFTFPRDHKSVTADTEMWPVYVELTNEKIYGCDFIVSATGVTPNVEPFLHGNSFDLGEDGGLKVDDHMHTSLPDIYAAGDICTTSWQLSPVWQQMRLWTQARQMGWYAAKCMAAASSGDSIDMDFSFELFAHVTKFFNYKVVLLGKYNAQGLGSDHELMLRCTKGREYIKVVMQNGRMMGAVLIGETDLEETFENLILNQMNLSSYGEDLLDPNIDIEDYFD
Chain of UniProt Q53H96 (Q53H96 whole entry): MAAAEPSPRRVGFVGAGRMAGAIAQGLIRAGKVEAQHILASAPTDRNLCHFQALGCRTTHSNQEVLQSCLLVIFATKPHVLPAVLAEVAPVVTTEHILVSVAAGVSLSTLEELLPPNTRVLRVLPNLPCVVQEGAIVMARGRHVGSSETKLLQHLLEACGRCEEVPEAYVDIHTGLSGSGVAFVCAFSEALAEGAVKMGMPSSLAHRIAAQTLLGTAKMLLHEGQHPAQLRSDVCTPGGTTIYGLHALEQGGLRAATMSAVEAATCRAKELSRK
Chain of UniProt Q96PZ0 (Q96PZ0 whole entry): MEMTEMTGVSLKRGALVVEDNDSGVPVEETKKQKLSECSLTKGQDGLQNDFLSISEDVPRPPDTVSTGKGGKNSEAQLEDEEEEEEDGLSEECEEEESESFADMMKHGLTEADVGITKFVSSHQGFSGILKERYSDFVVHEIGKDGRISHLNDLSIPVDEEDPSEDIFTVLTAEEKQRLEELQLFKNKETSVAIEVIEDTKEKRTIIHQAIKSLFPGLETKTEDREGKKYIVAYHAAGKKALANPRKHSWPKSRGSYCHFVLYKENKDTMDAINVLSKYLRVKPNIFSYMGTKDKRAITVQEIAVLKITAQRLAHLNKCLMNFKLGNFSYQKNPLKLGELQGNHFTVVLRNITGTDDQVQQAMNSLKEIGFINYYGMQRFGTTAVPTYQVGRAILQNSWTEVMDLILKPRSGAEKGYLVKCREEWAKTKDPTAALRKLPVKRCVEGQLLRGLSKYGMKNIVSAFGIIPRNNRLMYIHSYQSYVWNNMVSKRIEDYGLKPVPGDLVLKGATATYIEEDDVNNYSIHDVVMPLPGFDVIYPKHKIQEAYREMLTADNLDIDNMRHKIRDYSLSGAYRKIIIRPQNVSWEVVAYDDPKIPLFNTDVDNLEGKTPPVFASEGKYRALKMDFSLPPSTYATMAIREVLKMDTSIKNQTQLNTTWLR
Chain of UniProt Q9H0K6 (Q9H0K6 whole entry): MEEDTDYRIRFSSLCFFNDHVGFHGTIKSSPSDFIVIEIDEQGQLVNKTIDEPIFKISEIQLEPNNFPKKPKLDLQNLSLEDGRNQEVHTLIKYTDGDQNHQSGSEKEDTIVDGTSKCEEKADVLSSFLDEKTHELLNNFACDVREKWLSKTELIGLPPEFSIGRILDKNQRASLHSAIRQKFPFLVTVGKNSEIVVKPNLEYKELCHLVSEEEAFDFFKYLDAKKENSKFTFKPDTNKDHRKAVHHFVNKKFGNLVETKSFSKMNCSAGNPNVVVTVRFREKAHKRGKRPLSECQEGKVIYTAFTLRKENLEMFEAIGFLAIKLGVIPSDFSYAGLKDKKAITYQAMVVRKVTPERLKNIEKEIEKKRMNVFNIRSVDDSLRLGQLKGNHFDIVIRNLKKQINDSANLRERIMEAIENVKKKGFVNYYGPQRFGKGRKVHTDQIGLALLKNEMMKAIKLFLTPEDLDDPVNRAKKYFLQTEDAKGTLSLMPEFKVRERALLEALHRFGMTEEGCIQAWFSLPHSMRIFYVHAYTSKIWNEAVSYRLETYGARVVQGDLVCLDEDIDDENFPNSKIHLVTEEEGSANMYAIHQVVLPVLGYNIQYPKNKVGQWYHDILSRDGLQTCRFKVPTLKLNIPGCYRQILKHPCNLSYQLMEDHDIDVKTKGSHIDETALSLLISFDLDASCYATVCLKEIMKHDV
Chain of UniProt P20339 (P20339 whole entry): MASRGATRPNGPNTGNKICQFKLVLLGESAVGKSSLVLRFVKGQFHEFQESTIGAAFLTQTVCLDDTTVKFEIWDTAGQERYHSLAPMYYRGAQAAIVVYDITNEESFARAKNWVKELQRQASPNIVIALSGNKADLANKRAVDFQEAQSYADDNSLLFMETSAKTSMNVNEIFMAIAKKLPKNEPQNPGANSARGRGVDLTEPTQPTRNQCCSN
Chain of UniProt Q00577 (Q00577 whole entry): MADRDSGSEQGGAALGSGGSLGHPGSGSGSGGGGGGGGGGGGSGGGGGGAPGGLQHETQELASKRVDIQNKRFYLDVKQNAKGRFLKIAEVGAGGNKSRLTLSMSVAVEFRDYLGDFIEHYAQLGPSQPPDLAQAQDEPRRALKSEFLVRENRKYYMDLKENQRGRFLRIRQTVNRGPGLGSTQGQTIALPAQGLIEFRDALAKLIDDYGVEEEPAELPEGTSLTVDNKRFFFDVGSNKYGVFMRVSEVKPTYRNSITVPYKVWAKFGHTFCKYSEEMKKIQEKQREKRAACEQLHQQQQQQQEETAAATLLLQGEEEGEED
Chain of UniProt Q92626 (Q92626 whole entry): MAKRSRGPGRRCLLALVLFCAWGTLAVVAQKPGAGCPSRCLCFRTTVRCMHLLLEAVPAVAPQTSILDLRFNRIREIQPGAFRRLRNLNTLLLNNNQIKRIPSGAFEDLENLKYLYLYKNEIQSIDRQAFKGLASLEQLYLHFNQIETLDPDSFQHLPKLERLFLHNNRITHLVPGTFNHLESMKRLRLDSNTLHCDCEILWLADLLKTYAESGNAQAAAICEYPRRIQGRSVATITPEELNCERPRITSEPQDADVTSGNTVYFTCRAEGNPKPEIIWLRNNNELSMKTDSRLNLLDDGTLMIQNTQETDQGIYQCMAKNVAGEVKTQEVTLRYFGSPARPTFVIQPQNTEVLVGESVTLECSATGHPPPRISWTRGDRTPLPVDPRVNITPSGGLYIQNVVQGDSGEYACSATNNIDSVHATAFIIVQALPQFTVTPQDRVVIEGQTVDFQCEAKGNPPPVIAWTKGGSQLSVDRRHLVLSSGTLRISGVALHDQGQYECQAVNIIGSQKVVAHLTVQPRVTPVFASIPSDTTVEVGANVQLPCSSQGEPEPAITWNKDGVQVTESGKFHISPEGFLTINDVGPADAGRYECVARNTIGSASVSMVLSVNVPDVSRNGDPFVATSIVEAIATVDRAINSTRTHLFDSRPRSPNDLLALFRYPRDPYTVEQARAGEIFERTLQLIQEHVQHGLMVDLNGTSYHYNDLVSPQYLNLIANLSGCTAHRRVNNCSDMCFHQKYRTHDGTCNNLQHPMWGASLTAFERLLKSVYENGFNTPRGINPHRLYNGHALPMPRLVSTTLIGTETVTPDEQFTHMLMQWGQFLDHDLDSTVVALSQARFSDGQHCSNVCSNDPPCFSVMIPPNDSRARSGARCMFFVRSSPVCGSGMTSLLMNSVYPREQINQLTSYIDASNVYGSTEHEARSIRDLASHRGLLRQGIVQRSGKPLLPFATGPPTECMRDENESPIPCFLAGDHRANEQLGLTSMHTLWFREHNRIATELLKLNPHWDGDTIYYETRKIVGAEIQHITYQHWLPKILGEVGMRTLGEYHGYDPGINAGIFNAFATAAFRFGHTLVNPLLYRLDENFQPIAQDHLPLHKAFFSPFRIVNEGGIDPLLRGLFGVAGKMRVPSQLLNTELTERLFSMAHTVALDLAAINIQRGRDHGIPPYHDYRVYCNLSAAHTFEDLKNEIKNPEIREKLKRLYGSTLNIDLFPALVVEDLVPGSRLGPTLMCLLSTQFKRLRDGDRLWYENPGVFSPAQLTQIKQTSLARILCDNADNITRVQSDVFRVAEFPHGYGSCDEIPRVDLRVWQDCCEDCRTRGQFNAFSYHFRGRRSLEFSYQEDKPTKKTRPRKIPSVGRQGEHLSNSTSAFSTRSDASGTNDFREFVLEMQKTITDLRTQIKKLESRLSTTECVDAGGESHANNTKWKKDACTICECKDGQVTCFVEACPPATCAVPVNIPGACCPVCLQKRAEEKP
Chain of UniProt P51148 (P51148 whole entry): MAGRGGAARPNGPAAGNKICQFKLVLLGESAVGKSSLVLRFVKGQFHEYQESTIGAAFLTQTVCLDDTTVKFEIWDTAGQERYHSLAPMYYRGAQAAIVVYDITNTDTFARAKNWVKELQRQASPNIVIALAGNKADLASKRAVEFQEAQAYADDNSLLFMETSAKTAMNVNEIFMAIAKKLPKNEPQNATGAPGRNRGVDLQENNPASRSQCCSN

Target	thermal stability z-score (potassium arsenate)	thermal stability z-score (lipoamide; [1])	thermal stability z-score (lipoamide; arsenate co-treatment: none)
PTRH1 (UniProt Q86Y79)	-0.214	0.0851	0.0188
PTRH2 (UniProt Q9Y3E5)	-0.0653	-0.239	-0.143
PTS (UniProt Q03393)	0.981	0.382	-0.301
PTTG1 (UniProt O95997)	-1.58	-1.19	-1.5
PTTG1IP (UniProt P53801)	-0.2	-0.059	-0.0338
PUDP (UniProt Q08623)	-1.3	0.292	-0.0843
PUF60 (UniProt Q9UHX1)	0.789	0.11	0.816
PUM1 (UniProt Q14671)	-0.174	-0.249	-0.0302
PUM2 (UniProt Q8TB72)	-0.343	-0.565	0.382
PUM3 (UniProt Q15397)	0.369	0.119	-0.0918
PURA (UniProt Q00577)	-0.0389	0.195	-0.028
PURB (UniProt Q96QR8)	0.364	0.083	0.15
PUS1 (UniProt Q9Y606)	0.257	-0.761	-0.18
PUS3 (UniProt Q9BZE2)	2.26	0.378	-0.095
PUS7 (UniProt Q96PZ0)	0.651	-0.447	0.26
PUS7L (UniProt Q9H0K6)	-0.0157	0.3	0.174
PVR (UniProt P15151)	0.0637	-0.158	-0.0762
PWP1 (UniProt Q13610)	-2.52	-0.0751	-0.259
PWP2 (UniProt Q15269)	0.864	-0.256	0.154
PXDN (UniProt Q92626)	0.0514	-1.65	-1.61
PXN (UniProt P49023)	-2	-0.261	-0.432
PYCR1 (UniProt P32322)	-0.368	-0.0172	-0.299
PYCR2 (UniProt Q96C36)	-0.765	0.43	-0.4
PYCRL (UniProt Q53H96)	0.43	0.827	0.862

Target	thermal stability z-score (potassium arsenate)	thermal stability z-score (lipoamide; [1])	thermal stability z-score (lipoamide; arsenate co-treatment: none)
PYGB (UniProt P11216)	-1.24	0.243	0.0472
PYGL (UniProt P06737)	-0.513	0.968	0.345
PYM1 (UniProt Q9BRP8)	-0.578	0.618	-0.287
PYROXD1 (UniProt Q8WU10)	-1.15	0.569	0.443
QARS	-0.289	-0.515	-0.706
QDPR (UniProt P09417)	-1.26	0.36	0.387
QKI (UniProt Q96PU8)	0.0813	-0.625	0.069
QPCTL (UniProt Q9NXS2)	-0.256	-0.434	-0.457
QRICH1 (UniProt Q2TAL8)	0.0998	-0.132	-0.0369
QRSL1 (UniProt Q9H0R6)	0.708	-0.401	-2.57
QSER1 (UniProt Q2KHR3)	0.0737	-0.147	-0.0194
QSOX2 (UniProt Q6ZRP7)	0.165	0.352	1.15
QTRT1 (UniProt Q9BXR0)	-0.729	0.739	-1.03
QTRTD1 (UniProt Q9H974)	-0.765	0.678	-0.447
R3HCC1 (UniProt Q9Y3T6)	-0.101	0.183	0.233
R3HCC1L (UniProt Q7Z5L2)	0.0177	0.00414	0.282
R3HDM1 (UniProt Q15032)	0.0316	0.0761	0.111
RAB1A (UniProt P62820)	0.312	0.28	0.338
RAB1B (UniProt Q9H0U4)	0.196	0.238	0.549
RAB2A (UniProt P61019)	0.296	0.405	0.206
RAB3D (UniProt O95716)	0.692	0.635	1.07
RAB3GAP1 (UniProt Q15042)	0.764	-0.562	-0.113
RAB3GAP2 (UniProt Q9H2M9)	0.64	-0.717	-0.266
RAB3IL1 (UniProt Q8TBN0)	-0.89	-0.235	0.559

Target	thermal stability z-score (potassium arsenate)	thermal stability z-score (lipoamide; [1])	thermal stability z-score (lipoamide; arsenate co-treatment: none)
RAB4A (UniProt P20338)	0.408	0.387	0.311
RAB5A (UniProt P20339)	-0.695	-0.751	-0.744
RAB5B (UniProt P61020)	-0.758	0.278	-0.614
RAB5C (UniProt P51148)	0.552	0.345	0.119
RAB6A (UniProt P20340)	0.284	0.448	0.693
RAB7A (UniProt P51149)	0.258	0.164	0.352
RAB8A (UniProt P61006)	0.332	0.0143	0.344
RAB8B (UniProt Q92930)	-0.115	0.327	0.127
RAB9A (UniProt P51151)	0.801	0.654	0.721
RAB10 (UniProt P61026)	0.276	0.387	0.379
RAB11B (UniProt Q15907)	-0.384	-0.384	-1.01
RAB11FIP1 (UniProt Q6WKZ4)	-0.162	0.271	-0.127
RAB11FIP5 (UniProt Q9BXF6)	0.895	0.135	-1.43
RAB12 (UniProt Q6IQ22)	0.678	1.06	1.06
RAB13 (UniProt P51153)	0.695	-0.898	-0.475
RAB14 (UniProt P61106)	0.48	0.738	0.522
RAB18 (UniProt Q9NP72)	0.672	0.167	0.352
RAB20 (UniProt Q9NX57)	-0.306	-0.495	-0.609
RAB21 (UniProt Q9UL25)	0.119	0.0174	0.118
RAB22A (UniProt Q9UL26)	-0.396	0.482	0.207
RAB23 (UniProt Q9ULC3)	-0.626	0.712	0.437
RAB24 (UniProt Q969Q5)	-0.143	0.205	0.12
RAB27A (UniProt P51159)	0.579	0.277	-0.14
RAB27B (UniProt O00194)	0.58	0.463	0.0912
